Assay results from patent publication US20260294915A1, “COMBINATION THERAPY COMPRISING A MAT2A INHIBITOR AND A TOPOISOMERASE INHIBITOR, A SPLICING INHIBITOR SULFONAMIDE, OR A KIF18 INHIBITOR” (IDEAYA BIOSCIENCES, INC., priority 2023, published 2026).
Counter-ions that a name gives are not always drawn. Blank lines part the entries; values can stand above or below the molecule they belong to.

Experiments:
NCI-H520 = test: 10-day proliferation (CTG), equimolar Compound A + SPLAM (Example 4); assay type: cell-based; details: single agent or 1:1 combo
Procedure: (§1) A 10-day proliferation assay was performed in a panel of 5 MTAP-deficient and 2 wild type non-small cell lung and bladder cancer cell lines. Optimal cell seeding for all cell lines was determined by assessing the growth over a range of seeding densities in a 384-well format to identify conditions that permitted proliferation for 10 days. Cells were then plated at the optimal seeding density and treated with 20-point, two-fold dilution series of Compound A, the splicing inhibitor sulfonamide (SPLAM), or an equimolar combination of Compound A and the SPLAM. Combinations tested included Compound A in combination with four structurally different SPLAMs. Concentrations tested for Compound A and each SPLAM alone or in combination ranged from 0.04 nM to 20,000 nM. A plate of cells was harvested at the time of compound addition to quantify the number of cells at the start of the combination (T0). For cell quantification, the harvested cells were lysed with Promega CellTiter-Glo (CTG) reagent according to the manufacturer's protocol and the chemiluminescent signal was detected on a Synergy Neo plate reader. CTG estimates cell number through detection of cellular ATP levels. Cells were incubated with the drug combinations at 37° C. with 5% CO2 for 10 days. Cells were then lysed with CTG and the chemiluminescent signal was measured.
(§2) CTG values obtained after the 10-day treatment were background subtracted and expressed as a percent of the T0 value. Data were plotted against compound concentration and fit with a four-parameter equation to generate dose response curves for each single agent and the equimolar combination. Growth ICx (gICx) values ranging from gIC30 to gIC100 were interpolated from the fitted curves. Synergistic growth inhibition was assessed by determination of Combination Index (CI) values at these various points across the titration using the mutually non-exclusive equation [Chou, 1983; Chou, 1981] shown below where A equals the gICx value of Compound A, B equals the gICx value of the SPLAM, and A+B or B+A equals the gICx value of the equimolar combination. A Combination Index value less than 1.0 was considered synergistic.

NCI-H838 = test: as above; assay type: cell-based; details: single agent or 1:1 combo
Procedure: as §1, §2

RT112/84 = test: as above; assay type: cell-based; details: single agent or 1:1 combo
Procedure: as §1, §2

SW900 = test: as above; assay type: cell-based; details: single agent or 1:1 combo
Procedure: as §1, §2

TCCSUP = test: as above; assay type: cell-based; details: single agent or 1:1 combo
Procedure: as §1, §2

UMUC11 = test: as above; assay type: cell-based; details: single agent or 1:1 combo
Procedure: as §1, §2

UMUC5 = test: as above; assay type: cell-based; details: single agent or 1:1 combo
Procedure: as §1, §2

[1] = tested on: RT112/84 human bladder tumor cell-derived xenograft (CDX) model; test: Anti-tumor activity in RT112/84 mouse xenograft (CDX) model (Example 7); assay type: in vivo
Procedure: (§3) All mouse studies were approved by the Institutional Animal Care and Use Committee (IACUC) based on guidelines from the National Institutes of Health (NIH). Mice were maintained under pathogen-free conditions, and food and water were provided ad libitum.
The anti-tumor effect of Compound A and irinotecan hydrochloride as single-agents or in combination was assessed in the RT112/84 human bladder tumor cell-derived xenograft (CDX) model. Cells were expanded in RPMI-1640 (Gibco, Catalog Number 11875093) with 10% fetal bovine serum. These cells were free of mycoplasma and authenticated by STR profiling. Five million cells in log growth phase were resuspended in Hanks Balanced Salt Solution containing 50% Matrigel and implanted subcutaneously into the flank of each recipient female Crl:NU-Foxnlnu mouse. Mice were housed in microisolator cages with corn cob bedding with additional enrichment consisting of sterile nesting material (Innovive) and Bio-huts (Bio-Serv). Water (Innovive) and diet (Teklad Global 19% Protein Extruded Diet 2919, Irradiated) were provided ad libitum. The environment was maintained on a 12-hour light cycle at approximately 68-72° F. and 40-60% relative humidity.
Tumor Volume (TV) was calculated using the following formula: TV (mm^3)=(width×width×length)/2. Tumor growth inhibition (TGI) was calculated by [(TV controlfinal−TV treatedfinal)/(TV controlfinal−TV controlinitial)×100]. TV was analyzed for statistical significance utilizing GraphPad Prism version 10.0.3. Repeated Measures 2-Way ANOVA with Tukey's Multiple Comparisons was utilized, and P-values were derived from data collected on Day 14 (date of Vehicle group termination) and were considered statistically significant if less than 0.05. Tumor regression was calculated by using the percent change in tumor volume from the final tumor volume measurement from Day 73 when compared to the initial tumor volume from Day 1. Tumor regression was defined as reduced TV on Day 73 compared to Day 1. Tumor regression rate was defined as the percentage of animals per group with tumor regression.
Mean tumor volume at dosing start was approximately 249 mm^3, with ten mice randomized to each treatment group. Mice were dosed orally, once per day, with Vehicle, Compound A at 10 mg/kg, or dosed for 3 consecutive days followed by 4 days holiday by intraperitoneal (IP) injection of Compound B at 5 mg/kg, or combination of Compound A and Compound B. The vehicle group was a combination of Vehicle A (for Compound A, 0.5% 400 cps methylcellulose with 0.5% Tween-80 in sterile water) and Vehicle B (for irinotecan hydrochloride, Saline).

[2] = tested on: MKN45 (RCB1001) human gastric tumor cell-derived xenograft (CDX) model; test: Anti-tumor activity in MKN45 gastric mouse xenograft (CDX) model (Example 8); assay type: in vivo; details: 3 days on/4 days holiday
Procedure: as §3
(§4) The anti-tumor effect of Compound A and irinotecan hydrochloride as single-agents or in combination was assessed in the MKN45 (RCB1001) human gastric tumor cell-derived xenograft (CDX) model. MKN45 was expanded in RPMI1640 with 10% fetal bovine serum. Cells were free of mycoplasma and authenticated by STR profiling, and ten million cells in log growth phase were resuspended in Hanks Balanced Salt Solution containing 50% Matrigel and implanted subcutaneously into the flank of each recipient female Crl:NU-Foxn1nu mouse. Mice were housed in microisolator cages with corn cob bedding with additional enrichment consisting of sterile nesting material (Innovive) and Bio-huts (Bio-Serv). Water (Innovive) and diet (Teklad Global 19% Protein Extruded Diet 2919, Irradiated) were provided ad libitum. The environment was maintained on a 12-hour light cycle at approximately 68-72° F. and 40-60% relative humidity.
(§5) Tumor Volume (TV) was calculated using the following formula: TV (mm^3)=(width×width×length)/2. Tumor growth inhibition (TGI) was calculated by [(TV controlfinal−TV treatedfinal)/(TV controlfinal−TV controlinitial)×100]. TV was analyzed for statistical significance utilizing GraphPad Prism version 10.2.2. Repeated Measures 2-Way ANOVA with Dunnet's Multiple Comparisons was utilized, and P-values were derived from data collected on the date of Vehicle group termination and were considered statistically significant if less than 0.05.
(§6) Mean tumor volume at dosing start was approximately 190 mm^3, with six mice randomized to each treatment group. Mice were dosed orally, once per day, with Vehicle, Compound A at 10 mg/kg, or dosed for 3 consecutive days followed by 4 days holiday by intraperitoneal (IP) injection of Compound B at 5 mg/kg or 10 mg/kg, or combination of Compound A and Compound B. The vehicle group was a combination of Vehicle A (for Compound A, 0.5% 400 cps methylcellulose with 0.5% Tween-80 in sterile water) and Vehicle B (for irinotecan hydrochloride, Saline).

[3] = tested on: LMSU (RCB1062) human gastric tumor cell-derived xenograft (CDX) models; test: Anti-tumor activity in LMSU gastric mouse xenograft (CDX) model (Example 9); assay type: in vivo; details: 3 days on/4 days holiday; for Day 11 TV (mean): initial TV 185, vehicle 1018
Procedure: as §3
as §4, with “LMSU (RCB1062)” for “MKN45 (RCB1001)”, “models. LMSU” for “model. MKN45”, “HamF10” for “RPMI1640”
as §5
as §6, with “185” for “190”, “seven” for “six”

[4] = irinotecan hydrochloride 5 mg/kg IP, 3 days on/4 days holiday
[5] = irinotecan hydrochloride 5 mg/kg IP
[6] = irinotecan hydrochloride 10 mg/kg IP

IC50 (NCI-H520; Homo sapiens, NCI-H520, read-out: gIC50): 11.2 µM | IC90 (NCI-H520; 14400 min, read-out: gIC90): 12 µM | IC50 (NCI-H838; Homo sapiens, NCI-H838, read-out: gIC50): 4.93 µM | IC90 (NCI-H838; 14400 min, read-out: gIC90): 7.97 µM | IC50 (SW900; Homo sapiens, SW900, read-out: gIC50): 20 µM | IC90 (SW900; 14400 min, read-out: gIC90): 20 µM
Structure (SMILES): O=C(NS(=O)(=O)c1ccc(Br)s1)c1ccc(Cl)cc1Cl [Tasisulam, N-((5-bromothiophen-2-yl)sulfonyl)-2,4-dichlorobenzamide]
gIC30 (NCI-H520): 9.551 µM | gIC40 (NCI-H520): 10.354 µM | gIC60 (NCI-H520): 12.274 µM | gIC70 (NCI-H520): 13.716 µM | gIC100 (NCI-H520): 20 µM | IC80 (NCI-H520; 14400 min, read-out: gIC80): 16.4 µM | gIC30 (NCI-H838): 7.419 µM | gIC40 (NCI-H838): 4.551 µM | gIC60 (NCI-H838): 5.372 µM | gIC70 (NCI-H838): 5.923 µM | gIC100 (NCI-H838): 20 µM | IC80 (NCI-H838; 14400 min, read-out: gIC80): 6.69 µM | IC50 (RT112/84; Homo sapiens, RT112/84, read-out: gIC50): 20 µM | gIC30 (RT112/84): 20 µM | gIC40 (RT112/84): 20 µM | gIC60 (RT112/84): 20 µM | gIC70 (RT112/84): 20 µM | gIC100 (RT112/84): 20 µM | IC80 (RT112/84; 14400 min, read-out: gIC80): 20 µM | IC90 (RT112/84; 14400 min, read-out: gIC90): 20 µM | gIC30 (SW900): 20 µM | gIC40 (SW900): 20 µM | gIC60 (SW900): 20 µM | gIC70 (SW900): 20 µM | gIC100 (SW900): 20 µM | IC80 (SW900; 14400 min, read-out: gIC80): 20 µM | IC50 (TCCSUP; Homo sapiens, TCC-SUP, read-out: gIC50): 20 µM | gIC30 (TCCSUP): 20 µM | gIC40 (TCCSUP): 20 µM | gIC60 (TCCSUP): 20 µM | gIC70 (TCCSUP): 20 µM | gIC100 (TCCSUP): 20 µM | IC80 (TCCSUP; 14400 min, read-out: gIC80): 20 µM | IC90 (TCCSUP; 14400 min, read-out: gIC90): 20 µM | gIC30 (UMUC11): 17.77 µM | gIC40 (UMUC11): 18.358 µM | gIC60 (UMUC11): 19.349 µM | gIC70 (UMUC11): 19.781 µM | gIC100 (UMUC11): 20 µM | IC80 (UMUC11; 14400 min, read-out: gIC80): 20 µM | IC90 (UMUC11; 14400 min, read-out: gIC90): 20 µM | IC50 (UMUC11; read-out: gIC50): 18.9 µM | gIC30 (UMUC5): 16.121 µM | gIC40 (UMUC5): 16.834 µM | gIC60 (UMUC5): 18.053 µM | gIC70 (UMUC5): 18.592 µM | gIC100 (UMUC5): 20 µM | IC80 (UMUC5; 14400 min, read-out: gIC80): 19.1 µM | IC90 (UMUC5; 14400 min, read-out: gIC90): 19.6 µM | IC50 (UMUC5; read-out: gIC50): 17.5 µM

Structure (SMILES): CCc1c2c(nc3ccc(OC(=O)N4CCC(N5CCCCC5)CC4)cc13)-c1cc3c(c(=O)n1C2)COC(=O)[C@]3(O)CC [irinotecan hydrochloride]
TGI ([1]; Compound A 10 mg/kg oral once per day, irinotecan 5 mg/kg IP 3 days on/4 days off): 83% | response rate (mice with tumor regressions) ([1]; day 73, Compound A 10 mg/kg oral, irinotecan 5 mg/kg IP): 30% | Day 14 TGI [1, 4]: 83% | Tumor Regression Rate on Day 73 [1, 4]: 30% | Day 14 TV (mean) ([1]; irinotecan hydrochloride 5 mg/kg IP, 3 days on/4 days holiday, initial TV 249, vehicle 1069): 387 mm^3 | Day 25 TGI [2, 5]: 49% | Tumor Regression Rate on Day 25 [2, 5]: 0% | Day 25 TV (mean) ([2]; irinotecan hydrochloride 5 mg/kg IP, initial TV 190, vehicle 1396): 807 mm^3 | Day 25 TGI [2, 6]: 85% | Tumor Regression Rate on Day 25 [2, 6]: 17% | Day 25 TV (mean) ([2]; irinotecan hydrochloride 10 mg/kg IP, initial TV 192, vehicle 1396): 369 mm^3 | Day 11 TGI [3, 5]: 42% | Tumor Regression Rate on Day 11 [3, 5]: 0% | Day 11 TV (mean) [3, 5]: 671 mm^3 | Day 11 TGI [3, 6]: 80% | Tumor Regression Rate on Day 11 [3, 6]: 14% | Day 11 TV (mean) [3, 6]: 353 mm^3
